Earlier results, collected in patent US20080077374A1, “Method for predicting biological, biochemical, biophysical or pharmacological characteristics of a substance” (priority 2006, published 2008).
Where two headings read alike, the source gives them in different places.

Columns and labels:
male Sprague Dawley rats = details: for Diagnosis cc: clinical chemistry; for Diagnosis histo: histopathology; for Main target: main toxicity target; for observed severity of histological lesions: liver, labelled by COMET1 study number
HanWistar rats = HanWistar rats (study R12)
[1] = SpragueDawley rats, refinement of the principal toxicity

Compound | 2nd toxicity (male Sprague Dawley rats; rat, in vivo) | Subclass/Indication (male Sprague Dawley rats; SpragueDawley rats) | Diagnosis cc (male Sprague Dawley rats; SpragueDawley rats) | Diagnosis histo (male Sprague Dawley rats; SpragueDawley rats) | Main target (male Sprague Dawley rats; SpragueDawley rats) | 2nd toxicity (male Sprague Dawley rats; [1]) | observed severity of histological lesions (male Sprague Dawley rats) | 2nd toxicity (HanWistar rats) | Subclass/Indication (HanWistar rats) | Diagnosis cc (HanWistar rats; clinical chemistry) | Diagnosis histo (HanWistar rats; histopathology) | Main target (HanWistar rats; main toxicity target) | Tox class (male Sprague Dawley rats; SpragueDawley rats, highest dose level, pathology at 48 h post dose, assumed organ toxicity class)
O=C(O)/C=C\C(=O)O [Maleic acid] | Proximal |  |  |  |  |  |  |  |  |  |  |  | 
[Cl][Hg][Cl] [Mercury Chloride] |  | Toxicant | + | 3 | Nephrotoxic | Proximal |  |  |  |  |  |  | 
Gentamicin |  | Toxin | + | 3sub | Nephrotoxic | Proximal |  |  |  |  |  |  | 
CN(Cc1cnc2nc(N)nc(N)c2n1)c1ccc(C(=O)N[C@@H](CCC(=O)O)C(=O)O)cc1 [Methotrexate] | Liver & kidney | Toxicant | − | 1hea | Hemotoxic |  |  |  |  |  |  |  | 
CN[C@H](CC(C)C)C(=O)N[C@H]1C(=O)N[C@@H](CC(N)=O)C(=O)N[C@H]2C(=O)N[C@H]3C(=O)N[C@H](C(=O)N[C@H](C(=O)O)c4cc(O)cc(O)c4-c4cc3ccc4O)[C@H](O)c3ccc(c(Cl)c3)Oc3cc2cc(c3O[C@@H]2O[C@H](CO)[C@@H](O)[C@H](O)[C@H]2O[C@H]2C[C@](C)(N)[C@H](O)[C@H](C)O2)Oc2ccc(cc2Cl)[C@H]1O [Vancomycin] |  | Toxicant | + | 3reg | Nephrotoxic | Proximal |  |  |  |  |  |  | 
S=C=Nc1cccc2ccccc12 [ANIT] |  |  | + | 2bil | Hepatotoxic |  | no or minimal liver lesions |  |  |  |  |  | 
CNC=O [N-methylformamid] |  | Toxicant | + | 2 | Hepatotoxic | Direct reaction |  |  |  |  |  |  | 
NN [Hydrazine] |  | Toxicant | + | 7 | Hepatotoxic | Steatosis |  | Steatosis | Toxicant | + | 7 | Hepatotoxic | 
CN(C)N=O [Di-methylnitrosamin] |  | Toxicant | + | 2 | Hepatotoxic | Direct reaction | marked liver lesions |  |  |  |  |  | 
CO[C@@]12[C@H](COC(N)=O)C3=C(C(=O)C(C)=C(N)C3=O)N1C[C@@H]1N[C@@H]12 [Mitomycin] | Tubules, blood |  |  | 1hae |  |  |  |  |  |  |  |  | 
CCOC(=O)C(C)(C)Oc1ccc(Cl)cc1 [Clofibrate] | Peroxisome | Toxicant | + | 9sub | Hepatotoxic |  | no or minimal liver lesions |  |  |  |  |  | 
CC(=O)Nc1nnc(S(N)(=O)=O)s1 [Acetazolamide] | Papilla |  |  |  |  |  |  |  |  |  |  |  | 
Cl.N [Ammonium Chloride] |  | Non-Toxic | + | 0 | Kidney | Metabolic |  |  |  |  |  |  | ntx
